Measured values reported in ChEMBL document CHEMBL1201862, “PubChem BioAssay data set” (2004).
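Five compound concentrations were applied to cells in 96-well plates for 48 hours; endpoints were derived by simple linear interpolation of the resulting dose-response curve. The concentration for 50% growth inhibition is given as GI50.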 Calls of active or inactive are those of the source. No stated cut-off is given here; in the data, active = GI50 up to about 1.1 µM and inactive = higher.

Legend:
Experiment in all cases: growth of human tumour cells (NCI), 48 h
COLO 205 = system: COLO 205
LOX IMVI = system: LOX IMVI
OVCAR-4 = system: OVCAR-4
SN12C = system: SN12C
SNB-75 = system: SNB-75
SNB-19 = system: SNB-19
Malme-3M = system: Malme-3M
HT-29 = system: HT-29
CAKI-1 = system: CAKI-1
KM12 = system: KM12
SR = system: SR
NCI-H460 = system: NCI-H460
K562 = system: K562
T47D = system: T47D
SK-MEL-28 = system: SK-MEL-28
EKVX = system: EKVX
SK-MEL-5 = system: SK-MEL-5
HCT-116 = system: HCT-116
MOLT-4 = system: MOLT-4
MCF7 = system: MCF7

SMILES	GI50 (COLO 205)	GI50 (LOX IMVI)	GI50 (OVCAR-4)	GI50 (SN12C)	GI50 (SNB-75)	GI50 (SNB-19)	GI50 (Malme-3M)	GI50 (HT-29)	GI50 (CAKI-1)	GI50 (KM12)	GI50 (SR)	GI50 (NCI-H460)	GI50 (K562)	GI50 (T47D)	GI50 (SK-MEL-28)	GI50 (EKVX)	GI50 (SK-MEL-5)	GI50 (HCT-116)	GI50 (MOLT-4)	GI50 (MCF7)
CC(C)c1nc(Cl)nc(Cl)c1Cl	0.239 µM (active)	< 0.0365 µM (active)	0.249 µM (active)	0.482 µM (active)	5.11 µM (inactive)	0.847 µM (active)	0.304 µM (active)	0.0479 µM (active)	< 0.01 µM (active)	0.293 µM (active)	< 0.01 µM (active)	1.29 µM (inactive)	< 0.01 µM (active)	0.6 µM (active)	0.357 µM (active)	1.63 µM (inactive)	0.861 µM (active)	0.0344 µM (active)	0.0284 µM (active)	
Cc1cc2c(-c3ccccc3)cc(=O)[nH]c2cc1N	> 100 µM (inactive)	> 100 µM (inactive)	> 100 µM (inactive)	> 100 µM (inactive)	> 100 µM (inactive)	> 100 µM (inactive)		> 100 µM (inactive)	> 100 µM (inactive)	> 100 µM (inactive)	> 100 µM (inactive)	> 100 µM (inactive)	> 100 µM (inactive)	> 100 µM (inactive)	> 100 µM (inactive)	> 100 µM (inactive)	> 100 µM (inactive)	> 100 µM (inactive)	> 100 µM (inactive)	> 100 µM (inactive)
Cc1cn(C2CC(N=[N+]=[N-])C(COP(=O)(O)OCC3OC(n4cc(F)c(=O)[nH]c4=O)CC3O)O2)c(=O)[nH]c1=O (configuration not stated)	> 100 µM (inactive)	0.653 µM (active)		> 100 µM (inactive)	9.06 µM (inactive)	> 31.6 µM (inactive)		> 100 µM (inactive)	1.32 µM (inactive)	> 26.4 µM (inactive)	1.92 µM (inactive)	0.0292 µM (active)		> 100 µM (inactive)	> 77.4 µM (inactive)	6.46 µM (inactive)	12.2 µM (inactive)	4.21 µM (inactive)	2.22 µM (inactive)	0.137 µM (active)
CC1(C)O[C@@H]([C@H](O)CO)[C@H](O)[C@@H](C2SCCCS2)O1	> 100 µM (inactive)		> 100 µM (inactive)	> 100 µM (inactive)	> 100 µM (inactive)	> 100 µM (inactive)		> 100 µM (inactive)	> 100 µM (inactive)	> 100 µM (inactive)	23.2 µM (inactive)	> 100 µM (inactive)		> 100 µM (inactive)	> 100 µM (inactive)	> 100 µM (inactive)	> 100 µM (inactive)	> 100 µM (inactive)	> 10 µM (inactive)	> 100 µM (inactive)
N#CC1(C#N)NC(c2cccnc2)C(C#N)(C#N)NC1c1cccnc1 (configuration not stated)	> 100 µM (inactive)	> 100 µM (inactive)	> 100 µM (inactive)	> 100 µM (inactive)	47.9 µM (inactive)		> 100 µM (inactive)	> 100 µM (inactive)	> 100 µM (inactive)	> 100 µM (inactive)			> 100 µM (inactive)	> 100 µM (inactive)	> 100 µM (inactive)	> 100 µM (inactive)	> 100 µM (inactive)	> 100 µM (inactive)	> 100 µM (inactive)	> 100 µM (inactive)
Nc1c(C(=O)c2ccc(Cl)c(Cl)c2)[nH]c(NCc2ccccc2)c1C(=S)Nc1ccccc1	1.78 µM (inactive)	2.21 µM (inactive)	3.81 µM (inactive)	14.9 µM (inactive)	10 µM (inactive)	18.5 µM (inactive)	3.13 µM (inactive)	3.23 µM (inactive)	15.3 µM (inactive)	3.18 µM (inactive)	3.1 µM (inactive)	5.42 µM (inactive)	3.32 µM (inactive)	16.5 µM (inactive)	4.63 µM (inactive)	14.7 µM (inactive)		3.48 µM (inactive)	3.31 µM (inactive)	2.47 µM (inactive)
CSc1nc(=O)cnn1C	> 100 µM (inactive)		> 100 µM (inactive)	> 100 µM (inactive)	> 100 µM (inactive)	> 100 µM (inactive)	> 100 µM (inactive)	> 100 µM (inactive)	> 100 µM (inactive)	> 100 µM (inactive)	> 100 µM (inactive)	> 100 µM (inactive)	> 100 µM (inactive)	> 100 µM (inactive)	> 100 µM (inactive)	> 100 µM (inactive)	> 100 µM (inactive)	> 100 µM (inactive)	> 100 µM (inactive)	> 100 µM (inactive)
